Data: patent US20070232601A1, “Vla-4 Inhibitor” (priority 2004, published 2007)
pKi: −log10 of the molar value.

Experiments:
[1] = biological target: T1, hα4 and β1 integrins (VLA-4) (Homo sapiens, UniProt P05556+P13612); test: In vitro evaluation: inhibition of binding of CHO cells expressing hα4 and β1 integrins to Eu3+-hVCAM-1 D1D7-IgG; conditions: ligand Eu3+-hVCAM-1 D1D7-IgG 2 nM, Ki calculated from IC50
T1 construct: expressed in transfected cells; host or cells: CHO cells
Outline: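 CHO cells stably expressing hα4β1 were cultured 2 days, then incubated 1 h at room temperature with Eu3+-hVCAM-1 D1D7-IgG (added as 2 nM solution) and compound in HEPES pH 7.5 with Ca2+, Mg2+ and 4 mM Mn2+, ± 6% human serum albumin. Bound europium was read by time-resolved fluorescence; IC50 was converted to Ki using Scatchard-derived Kd.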

[2] = Dispersibility test in Japanese Pharmacopoeia First and Second Solution; assay type: physicochemical; conditions: for Dispersibility in Japanese Pharmacopoeia First Solution: JP1, pH 1.2; for Dispersibility in Japanese Pharmacopoeia Second Solution: JP2, pH 6.8
Protocol: Dispersibility of a test substance in Japanese Pharmacopoeia First Solution (JP1, pH 1.2) and Japanese Pharmacopoeia Second Solution (JP2, pH 6.8) was evaluated.

T1 sequence (P13612 34-1032): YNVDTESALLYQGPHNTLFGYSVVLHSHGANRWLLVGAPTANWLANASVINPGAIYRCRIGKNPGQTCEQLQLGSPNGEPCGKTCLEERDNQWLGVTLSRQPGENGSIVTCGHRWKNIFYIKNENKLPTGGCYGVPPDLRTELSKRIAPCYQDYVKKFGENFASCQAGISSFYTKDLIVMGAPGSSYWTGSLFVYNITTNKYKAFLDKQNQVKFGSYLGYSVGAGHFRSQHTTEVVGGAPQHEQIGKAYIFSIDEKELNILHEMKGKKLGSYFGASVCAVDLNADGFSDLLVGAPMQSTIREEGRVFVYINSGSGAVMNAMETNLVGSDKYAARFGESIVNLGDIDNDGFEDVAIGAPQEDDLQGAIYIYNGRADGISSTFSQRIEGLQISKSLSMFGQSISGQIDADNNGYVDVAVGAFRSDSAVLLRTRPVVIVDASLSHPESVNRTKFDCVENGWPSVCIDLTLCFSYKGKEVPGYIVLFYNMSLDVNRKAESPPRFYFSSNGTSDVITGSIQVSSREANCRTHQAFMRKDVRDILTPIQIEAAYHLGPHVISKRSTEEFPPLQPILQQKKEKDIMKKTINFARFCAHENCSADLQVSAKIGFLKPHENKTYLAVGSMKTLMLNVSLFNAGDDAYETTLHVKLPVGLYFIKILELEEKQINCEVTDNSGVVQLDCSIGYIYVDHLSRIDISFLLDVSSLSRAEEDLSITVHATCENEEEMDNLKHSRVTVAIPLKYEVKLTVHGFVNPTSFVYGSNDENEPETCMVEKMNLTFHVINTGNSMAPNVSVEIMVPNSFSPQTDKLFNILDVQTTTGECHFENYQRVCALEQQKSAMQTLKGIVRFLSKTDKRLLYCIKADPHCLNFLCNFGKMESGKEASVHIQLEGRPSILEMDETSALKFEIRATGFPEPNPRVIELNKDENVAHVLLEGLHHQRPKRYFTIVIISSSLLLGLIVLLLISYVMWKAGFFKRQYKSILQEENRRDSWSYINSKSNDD
T1 sequence (P05556 21-798): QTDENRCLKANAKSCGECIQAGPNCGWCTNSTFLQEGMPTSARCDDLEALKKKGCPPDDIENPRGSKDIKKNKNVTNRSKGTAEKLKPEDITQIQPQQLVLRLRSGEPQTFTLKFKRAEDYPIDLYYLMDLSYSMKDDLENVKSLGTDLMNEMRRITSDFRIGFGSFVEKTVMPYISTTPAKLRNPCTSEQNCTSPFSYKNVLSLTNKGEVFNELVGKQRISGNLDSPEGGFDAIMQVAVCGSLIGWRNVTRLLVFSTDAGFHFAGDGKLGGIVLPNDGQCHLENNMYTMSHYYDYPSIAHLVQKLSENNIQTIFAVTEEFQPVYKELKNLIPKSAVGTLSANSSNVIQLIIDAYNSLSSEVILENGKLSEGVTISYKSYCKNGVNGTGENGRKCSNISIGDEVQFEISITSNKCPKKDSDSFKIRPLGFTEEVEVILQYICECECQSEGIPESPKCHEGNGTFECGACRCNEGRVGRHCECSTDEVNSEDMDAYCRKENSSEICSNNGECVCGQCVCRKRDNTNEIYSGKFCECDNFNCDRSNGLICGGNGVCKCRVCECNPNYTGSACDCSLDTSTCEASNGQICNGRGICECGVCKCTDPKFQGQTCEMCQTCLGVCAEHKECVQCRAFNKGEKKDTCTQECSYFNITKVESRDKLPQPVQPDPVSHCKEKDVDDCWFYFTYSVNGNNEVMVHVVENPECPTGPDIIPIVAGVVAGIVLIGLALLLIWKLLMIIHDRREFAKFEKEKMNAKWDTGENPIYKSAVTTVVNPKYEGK

| SMILES | pKi [1] | Dispersibility in Japanese Pharmacopoeia First Solution [2] [µg/mL] | Dispersibility in Japanese Pharmacopoeia Second Solution [2] [µg/mL] |
| --- | --- | --- | --- |
| Cn1cc(C(=O)Nc2cc(F)c(CC(=O)N3C[C@@H](N4CCC(F)(F)CC4)C[C@H]3c3ncc(CCC(=O)O)s3)cc2Cl)c2ccccc21 [Example 73, 3-[2-[1-[5-Chloro-2-fluoro-4-(1-methyl-3-indolylcarbonylamino)phenylacetyl]-(4S)-[1-(4,4-difluoro)piperidinyl]-(2S)-pyrrolidinyl]-5-thiazolyl]propionic acid] | 8.96 | 230 | 290 |
| COC1CN([C@H]2C[C@@H](c3ncc(CCC(=O)O)s3)N(C(=O)Cc3cc(Cl)c(NC(=O)c4cn(C)c5ccccc45)cc3F)C2)C1 [Example 63, 3-[2-[1-[5-Chloro-2-fluoro-4-(1-methyl-3-indolylcarbonylamino)phenylacetyl]-(4S)-[1-(3-methoxy)azetidinyl]-(2S)-pyrrolidinyl]-5-thiazolyl]propionic acid] | 9.05 | 1000 | 1000 |
| O=C(O)CCc1cnc([C@@H]2C[C@H](N3CCC(F)(F)CC3)CN2C(=O)Cc2cc(Cl)c(NC(=O)c3csc4ccccc34)cc2F)s1 [Example 75, 3-[2-[1-[4-(3-Benzo[b]thiophenylcarbonylamino)-5-chloro-2-fluorophenylacetyl]-(4S)-[1-(4,4-difluoro)piperidinyl]-(2S)-pyrrolidinyl]-5-thiazolyl]propionic acid] | 9.33 | 220 | 160 |
| Cn1cc(C(=O)Nc2cc(Cl)c(CC(=O)N3C[C@@H](N4CCN(CC(F)(F)F)CC4)C[C@H]3c3ncc(CCC(=O)O)s3)cc2Cl)c2ccccc21 [Example 80, 3-[2-[1-[2,5-Dichloro-4-(1-methyl-3-indolylcarbonylamino)phenylacetyl]-(4S)-[1-(4-(2,2,2-trifluoro)ethyl)piperazinyl]-(2S)-pyrrolidinyl]-5-thiazolyl]propionic acid] | 8.70 | 110 | 730 |
| CO[C@H]1C[C@@H](c2ncc(CCC(=O)O)s2)N(C(=O)Cc2ccc(Nc3nc4ccccc4o3)c(Cl)c2)C1 [Example 107, 3-[2-[1-[4-(2-Benzoxazolyl)amino-3-chlorophenyl]acetyl-(4S)-methoxy-(2S)-pyrrolidinyl]-5-thiazolyl]propionic acid] | 8.04 | 700 | 700 |
| C[C@@H]1CN([C@H]2C[C@@H](c3ncc(CCC(=O)O)s3)N(C(=O)Cc3cc(Cl)c(NC(=O)c4coc5ccccc45)cc3Cl)C2)C[C@H](C)O1 [Example 90] | 8.89 | 1100 | 1300 |
| O=C(O)CCc1cnc([C@@H]2C[C@H](N3CCN(CC(F)(F)F)CC3)CN2C(=O)Cc2cc(Cl)c(NC(=O)c3csc4ccccc34)cc2F)s1 [Example 81, 3-[2-[1-[4-(3-Benzo[b]thiophenylcarbonylamino)-5-chloro-2-fluorophenylacetyl]-(4S)-[1-(4-(2,2,2-trifluoro)ethyl)piperazinyl]-(2S)-pyrrolidinyl]-5-thiazolyl]propionic acid] | 8.89 | 210 | 680 |
| O=C(O)CCc1cnc([C@@H]2C[C@H](N3CCC(F)(F)CC3)CN2C(=O)Cc2cc(Cl)c(NC(=O)c3csc4ccccc34)cc2Cl)s1 [Example 76] | 9.10 | 110 | 83 |
| CCOC1CN([C@H]2C[C@@H](c3ncc(CCC(=O)O)s3)N(C(=O)Cc3cc(Cl)c(NC(=O)c4cn(C)c5ccccc45)cc3Cl)C2)C1 [Example 70, 3-[2-[1-[2,5-Dichloro-4-(1-methyl-3-indolylcarbonylamino)phenylacetyl]-(4S)-[1-(3-ethoxy)azetidinyl]-(2S)-pyrrolidinyl]-5-thiazolyl]propionic acid] | 8.64 | 960 | 960 |
| C[C@@H]1CN([C@H]2C[C@@H](c3ncc(CCC(=O)O)s3)N(C(=O)Cc3cc(Cl)c(NC(=O)c4csc5ccccc45)cc3Cl)C2)C[C@H](C)O1 [Example 88, 3-[2-[1-[4-(3-Benzo[b]thiophenylcarbonylamino)-2,5-dichlorophenylacetyl]-(4S)-[4-(cis-2,6-dimethyl)morpholinyl]-(2S)-pyrrolidinyl]-5-thiazolyl]propionic acid] | 8.92 | 1200 | 1400 |
| COc1ccccc1Nc1nc2ccc(CC(=O)N3C[C@@H](OC)C[C@H]3c3ncc(CCC(=O)O)s3)c(F)c2o1 [Example 10, 3-[2-[1-[[7-Fluoro-2-(2-methoxyphenylamino)-1,3-benzoxazol-6-yl]acetyl]-(4S)-methoxy-(2S)-pyrrolidinyl]-5-thiazolyl]propionic acid] | 9.25 | 1700 | 2000 |
| COC1CN([C@H]2C[C@@H](c3ncc(CCC(=O)O)s3)N(C(=O)Cc3cc(Cl)c(NC(=O)c4coc5ccccc45)cc3F)C2)C1 [Example 67, 3-[2-[1-[4-(3-Benzo[b]furanylcarbonylamino)-5-chloro-2-fluorophenylacetyl]-(4S)-[1-(3-methoxy)azetidinyl]-(2S)-pyrrolidinyl]-5-thiazolyl]propionic acid] | 8.92 | 1000 | 1000 |
| O=C(O)CCc1cnc([C@@H]2C[C@H](N3CCCCC3)CN2C(=O)Cc2cc(Cl)c(NC(=O)c3csc4ccccc34)cc2F)s1 [Example 47, 3-[2-[1-[4-[(3-Benzo[b]thienylcarbonyl)amino]-5-chloro-2-fluorophenylacetyl]-(4S)-(1-piperidinyl)-(2S)-pyrrolidinyl]-5-thiazolyl]propionic acid] | 9.03 | >2000 | 510 |
| CO[C@H]1C[C@@H](c2ncc(CCC(=O)O)s2)N(C(=O)Cc2ccc(Nc3nc4ccccc4s3)c(Cl)c2)C1 [Example 110, 3-[2-[1-[4-(2-Benzothiazolyl)amino-3-chlorophenyl]acetyl-(4S)-methoxy-(2S)-pyrrolidinyl]-5-thiazolyl]propionic acid] | 8.60 | 730 | 730 |
| CO[C@H]1C[C@@H](c2ncc(CCC(=O)O)s2)N(C(=O)Cc2cc(Cl)c(Nc3nc4ccccc4s3)cc2F)C1 [Example 111, 3-[2-[1-[4-(2-Benzothiazolyl)amino-5-chloro-2-fluorophenyl]acetyl-(4S)-methoxy-(2S)-pyrrolidinyl]-5-thiazolyl]propionic acid] | 8.48 | 570 | 750 |
| CCOC1CN([C@H]2C[C@@H](c3ncc(CCC(=O)O)s3)N(C(=O)Cc3cc(Cl)c(NC(=O)c4csc5ccccc45)cc3Cl)C2)C1 [Example 72, 3-[2-[1-[4-(3-Benzo[b]thiophenylcarbonylamino)-2,5-dichlorophenylacetyl]-(4S)-1-(3-ethoxy)azetidinyl-(2S)-pyrrolidinyl]-5-thiazolyl]propionic acid] | 9.17 | 960 | 960 |
| Cn1cc(C(=O)Nc2cc(F)c(CC(=O)N3C[C@@H](N4CCN(CC(F)(F)F)CC4)C[C@H]3c3ncc(CCC(=O)O)s3)cc2Cl)c2ccccc21 [Example 79, 3-[2-[1-[5-Chloro-2-fluoro-4-(1-methyl-3-indolylcarbonylamino)phenylacetyl]-(4S)-[1-(4-(2,2,2-trifluoro)ethyl)piperazinyl]-(2S)-pyrrolidinyl]-5-thiazolyl]propionic acid] | 8.82 | 250 | 670 |
| O=C(O)CCc1cnc([C@@H]2[C@@H](O)CCN2C(=O)Cc2cc(Cl)c(Nc3nc4ccccc4s3)cc2Cl)s1 [Example 121, 3-[2-[1-[4-(2-Benzothiazolyl)amino-2,5-dichlorophenyl]acetyl-(3S)-hydroxy-(2S)-pyrrolidinyl]-5-thiazolyl]propionic acid] | 8.07 | 160 | 780 |
| CO[C@H]1C[C@@H](c2ncc(CCC(=O)O)s2)N(C(=O)Cc2cc(Cl)c(Nc3nc4ccccc4o3)cc2F)C1 [Example 108] | 7.72 | 730 | 730 |
